The text below walks through data of ChEMBL document CHEMBL1201862, “PubChem BioAssay data set” (2004).

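Briefly, cells in 96-well plates were exposed to five compound concentrations for 48 h, and endpoints were estimated by linear interpolation. At the GI50, growth is halved.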 Calls of active or inactive are those of the source. Rule as the data show it: active = GI50 up to about 1.1 µM and inactive = higher. A value given as a limit tells only on which side of the number the result lay.

Holding throughout (assay): NCI-60 cell line screen, 48 h
Experiment [1] relates to M14.
Experiment [2] deals with SN12C.
In experiment [3] the test system is SK-MEL-28.
For experiment [4], the system named is NCI-H226.
The test system of experiment [5] is IGROV-1.
Experiment [6] concerns CCRF-CEM.
For experiment [7], the system named is A549.
Experiment [8] concerns UACC-257.
Experiment [9] relates to HOP-62.
Experiment [10] deals with K562.
Experiment [11] concerns OVCAR-3.
Experiment [12] concerns OVCAR-5.
Experiment [13] has as its system NCI/ADR-RES.
Experiment [14] has as its system HOP-92.
In experiment [15] the test system is SF-268.
For experiment [16], the system named is KM12.
Experiment [17] has as its system MOLT-4.
For experiment [18], the system named is NCI-H23.
The subject of experiment [19] is RPMI-8226.
In experiment [20] the test system is COLO 205.

`Cc1ccc2c(c1)c1ccc3c(c1n2C)C(=O)C=CC3=O`: the GI50 in experiment [1] is 2.05 µM (inactive); in [2], 3.52 µM (inactive); in experiment [3], 2.18 µM (inactive); in experiment [4] it was > 6.85 µM (inactive); in experiment [5], 3.52 µM (inactive); in experiment [6] it was 0.284 µM (active). Moreover, the GI50 was > 10 µM (inactive) in experiment [7]; 2.51 µM (inactive) in [8]; > 10 µM (inactive) in experiment [9]; 0.468 µM (active) in experiment [10]; 1.95 µM (inactive) in experiment [11]; > 10 µM (inactive) in experiment [12]. Also, the GI50 in experiment [13] was 2.96 µM (inactive); in experiment [14], 2.03 µM (inactive); in experiment [15], 3.43 µM (inactive); in experiment [16], 6.84 µM (inactive); in [17], 0.76 µM (active); in experiment [18], 2.62 µM (inactive). Besides, the GI50 was 1.23 µM (inactive) in experiment [19] and 1.26 µM (inactive) in experiment [20].

`O=C1N/C(=N/N=C\c2ccccc2)N/C1=C/c1ccccc1`: the GI50 in experiment [1] is 45.4 µM (inactive); in [2], 39.7 µM (inactive); in experiment [3], 85.1 µM (inactive); in experiment [4] it was 14.8 µM (inactive); in experiment [5], 24.8 µM (inactive); in experiment [6], 23.2 µM (inactive). Further, the GI50 is 35.7 µM (inactive) in experiment [7]; 53.6 µM (inactive) in [8]; 19.5 µM (inactive) in experiment [9]; 21.3 µM (inactive) in experiment [10]; 32.2 µM (inactive) in [11]; 21.6 µM (inactive) in experiment [12]. The GI50 in experiment [13] was 22.9 µM (inactive); in [14], 22.2 µM (inactive); in experiment [15], 27.3 µM (inactive); in experiment [16], 22.5 µM (inactive); in [17], 14.4 µM (inactive); in experiment [18] it was 21.7 µM (inactive). The GI50 is 26.6 µM (inactive) in experiment [19] and 68.5 µM (inactive) in experiment [20].

In the case of `COC(=N)CCCl`, the GI50 in [1], in experiment [2], in experiment [3], in experiment [4], in [5] and in [6] was > 100 µM (inactive) in each case. The GI50 in experiment [7], in experiment [8], in experiment [9], in experiment [10], in experiment [11] and in [12] was > 100 µM (inactive) in each case. Also, the GI50 in [13], in experiment [14], in experiment [15], in experiment [16], in experiment [17] and in experiment [18] was > 100 µM (inactive) in each case. The GI50 in [19] and in experiment [20] was > 100 µM (inactive) throughout.

For `Cn1nc2ccc([N+](=O)[O-])c(Cn3nnc4ccccc43)c2n1`, the GI50 in experiment [1], in experiment [2], in experiment [3], in experiment [4], in [5] and in experiment [6] was > 100 µM (inactive) in each case. The GI50 in experiment [7], in experiment [8], in experiment [9], in experiment [10], in experiment [11] and in experiment [12] was > 100 µM (inactive) each time. Further, the GI50 was 71 µM (inactive) in [13]; > 100 µM (inactive) in experiment [14]; > 100 µM (inactive) in experiment [15]; 76.7 µM (inactive) in experiment [16]; > 100 µM (inactive) in experiment [17]; > 100 µM (inactive) in [18]. Moreover, the GI50 in [19] and in experiment [20] was > 100 µM (inactive) each time.

As to `O=S(=O)(SC1=NCCN1)c1ccc2ccccc2c1`, the GI50 in [1] is 23.3 µM (inactive); in experiment [2], 24.4 µM (inactive); in experiment [3] it was 34.8 µM (inactive); in [4], 28.9 µM (inactive); in experiment [5] it was 31 µM (inactive); in experiment [6], 21 µM (inactive). Further, the GI50 in experiment [7] was 26.8 µM (inactive); in experiment [8], 39.4 µM (inactive); in experiment [9] it was 23.3 µM (inactive); in [10] it was 22.7 µM (inactive); in [11], 27.5 µM (inactive); in experiment [12], 18.8 µM (inactive). Moreover, the GI50 was 21.8 µM (inactive) in experiment [13]; 51.1 µM (inactive) in experiment [14]; 23.2 µM (inactive) in [15]; 20.2 µM (inactive) in experiment [16]; 24.8 µM (inactive) in [17]; 22.9 µM (inactive) in experiment [18]. Moreover, the GI50 in experiment [19] was 26.4 µM (inactive); in experiment [20], 18.7 µM (inactive).

As for `COc1ccc(-c2cn3c(nc4ccccc43)c(C)n2)cc1`, the GI50 was > 100 µM (inactive) in experiment [1]; > 77.1 µM (inactive) in [2]; 95.5 µM (inactive) in experiment [3]; > 68.5 µM (inactive) in [4]; 28.8 µM (inactive) in experiment [5]; > 100 µM (inactive) in [6]. In addition, the GI50 in experiment [7] was 86.5 µM (inactive); in experiment [8] it was > 61.9 µM (inactive); in experiment [9] it was 31.8 µM (inactive); in [10], > 100 µM (inactive); in experiment [11], 54.8 µM (inactive); in experiment [12], > 78.5 µM (inactive). Moreover, the GI50 in experiment [13] is 33.6 µM (inactive); in [14], 21.7 µM (inactive); in [15], > 51.5 µM (inactive); in experiment [16], > 100 µM (inactive); in experiment [17] it was > 100 µM (inactive); in experiment [18], 50.4 µM (inactive). The GI50 in [19] is > 75.9 µM (inactive); in experiment [20], > 100 µM (inactive).

`CC(C)CC(=O)OC[n+]1ccc(-c2c(COC(=O)NC(C)C)c(COC(=O)NC(C)C)c3n2CCC3)cc1`: the GI50 is > 100 µM (inactive) in experiment [1]; > 100 µM (inactive) in experiment [2]; > 100 µM (inactive) in [3]; > 100 µM (inactive) in experiment [4]; > 100 µM (inactive) in [5]; 64.4 µM (inactive) in experiment [6]. Also, the GI50 in [7], in experiment [8], in experiment [9], in experiment [10], in experiment [11] and in [12] was > 100 µM (inactive) throughout. Besides, the GI50 was > 100 µM (inactive) in experiment [13]; > 100 µM (inactive) in [14]; > 100 µM (inactive) in experiment [15]; > 100 µM (inactive) in experiment [16]; 32.3 µM (inactive) in experiment [17]; 75.2 µM (inactive) in experiment [18]. In addition, the GI50 in experiment [19] and in experiment [20] was > 100 µM (inactive) in each case.

Regarding `COC(=O)c1ccccc1NC(=O)C(=O)CC(=O)c1ccccc1NC1=CC(=O)C(=O)c2ccccc21`, the GI50 in [1] is 5.12 µM (inactive); in experiment [2], 3.94 µM (inactive); in experiment [3], 13.1 µM (inactive); in experiment [4] it was 25.9 µM (inactive); in experiment [5], 13.2 µM (inactive); in experiment [6], 3.17 µM (inactive). Also, the GI50 in [7] is 16.3 µM (inactive); in experiment [8] it was 6.05 µM (inactive); in [9], 22.7 µM (inactive); in experiment [10], 2.91 µM (inactive); in [11], 1.78 µM (inactive); in experiment [12], 29.2 µM (inactive). Besides, the GI50 in experiment [13] is 2.33 µM (inactive); in experiment [14], 5.16 µM (inactive); in experiment [15], 5.96 µM (inactive); in [16], 15.2 µM (inactive); in experiment [17], 3.98 µM (inactive); in [18] it was 5.09 µM (inactive). The GI50 in [19] is 2.64 µM (inactive); in [20] it was 31.9 µM (inactive).

As to `Cc1ccc(NC(=O)CSc2nc(C)nc3c2sc(=S)n3-c2ccccc2)cc1`, the GI50 is 2.79 µM (inactive) in experiment [1]; 6.49 µM (inactive) in [2]; > 10 µM (inactive) in experiment [3]; 3.33 µM (inactive) in experiment [4]; > 10 µM (inactive) in [5]; 9.23 µM (inactive) in experiment [6]. In addition, the GI50 was > 10 µM (inactive) in experiment [7]; > 10 µM (inactive) in experiment [8]; 2.29 µM (inactive) in experiment [9]; > 10 µM (inactive) in experiment [10]; 5.37 µM (inactive) in experiment [11]; > 10 µM (inactive) in experiment [12]. For the same compound, the GI50 in experiment [13] was 4.7 µM (inactive); in [14], 2.71 µM (inactive); in [15], 6.14 µM (inactive); in experiment [16], > 10 µM (inactive); in [17], > 10 µM (inactive); in experiment [18] it was > 10 µM (inactive). The GI50 is > 10 µM (inactive) in [19] and 6.15 µM (inactive) in [20].

On to `O=c1[nH]nc(-c2ccccc2)n1/N=C/c1cccc([N+](=O)[O-])c1`, for which the GI50 in experiment [1], in experiment [2], in [3], in [4], in [5] and in [6] was > 100 µM (inactive) each time. In addition, the GI50 in experiment [7] was > 100 µM (inactive); in experiment [8] it was > 100 µM (inactive); in experiment [9] it was 28.7 µM (inactive); in experiment [10] it was > 100 µM (inactive); in experiment [11] it was > 100 µM (inactive); in experiment [12], > 100 µM (inactive). Besides, the GI50 in experiment [13] was 41.4 µM (inactive); in [14], > 100 µM (inactive); in experiment [15] it was > 100 µM (inactive); in experiment [16] it was > 100 µM (inactive); in experiment [17] it was > 100 µM (inactive); in [18], > 100 µM (inactive). For the same compound, the GI50 in experiment [19] and in [20] was > 100 µM (inactive) each time.
